Measurements: PubChem BioAssay AID2060495 (Molecular Pharmacology Branch, DTP, NCI, 2025)
Blank lines part the entries; values can stand above or below the compound they belong to.

System: 521955-158-R2-J5-PDC complex spheroid viability
Test: Anticancer human tumor 521955-158-R2-J5-PDC patient-derived pancreatic carcinoma cell line growth inhibition [GQUAD]
Settings: for IC50: curve of first compound; for viability, T/C: stronger effect = lower value
Description: DNA G-quadruplex Stabilizer Agents in Combinations in Complex Spheroids
A high-throughput screen of multi-cell type tumor spheroids was designed to identify active combinations of DNA G-quadruplex stabilizer agents and targeted small molecules. Complex spheroids include a stromal component modeled by human endothelial cells (HUVEC) and fibroblasts modeled by human mesenchymal stem cells (MSCs). The concentration ranges selected for each drug and investigational agent were based upon clinically achievable concentrations if the clinical Cmax of the agent was known.
Compounds. The drugs and investigational agents: pidnarulex (CX-5461; NSC782164), APTO-253 (NSC789042), BRACO-19 (NSC847499), peposertib (NSC802822), ceralasertib (NSC780249), elimusertib (NSC800525), camonsertib (NSC841442), AZD-1390 (NSC803789), olaparib (NSC753686), talazoparib (NSC767125), ART-558 (NSC835418), sotorasib (NSC818433), MRTX-1133 (NSC836407), SN-38 (NSC673596), topotecan (NSC609699), etoposide (NSC141540), doxorubicin (NSC123127), gemcitabine (NSC613327), 5-fluorouracil (NSC19893), paclitaxel (NSC125973), vemurafenib (NSC761431), panobinostat (NSC761190), R-306465 (JNJ-16241199; NSC773264), adavosertib (NSC754352), TP-3654 (NSC805149), carboplatin (NSC241240), KSQ-4279 (NSC840948), and staurosporine (NSC755774) were obtained from the National Cancer Institute (NCI) Developmental Therapeutics Program Chemical Repository (34). The FDA-approved anticancer drug set is available from the NCI Developmental Therapeutics Program. […] The stock solutions were prepared in dimethyl sulfoxide (DMSO, Sigma-Aldrich, St. Louis, MO, cat. D2650) at 800-fold the tested concentration and stored at -70 degrees C prior to their use. All drugs and investigational agents were tested over a range starting from a high concentration at or near the clinical Cmax and decreasing in half-log increments. If the clinical Cmax for an agent had not been determined, the highest concentration tested was 10 microM.
2.3 Cell Culture. All cells were maintained in an incubator at 37 degrees C and 5% CO2 with 95% humidity. The PDC lines were cultured according to standard operating procedures established by the NCI PDMR. All PDCs were thawed and cultured in Matrigel-coated flasks prepared with a working solution of 1X Ham's F-12 nutrient mix, without supplementation (Invitrogen, cat. 11765054), 100 U/mL penicillin-streptomycin (Invitrogen, cat. 15140122), and 2.5% Matrigel (Corning Inc., cat. 354248) for the first three passages. The 857933-349-R-J2-PDC line was cultured in 6C/Colon 1B media, which includes advanced DMEM/F-12 (Thermo Fisher Scientific, cat. 12634028), 10 mM HEPES (Thermo Fisher Scientific, cat. 15630080), 1X GlutaMAX supplement (Thermo Fisher Scientific, cat. 35050061), 0.1 mg/mL primocin (InvivoGen, cat. ant-pm-2), 10% defined fetal bovine serum, heat inactivated (HyClone Laboratories Inc., cat. SH30070.03HI), 50% L-WRN conditioned media (ATCC, cat. CRL-3276), 1.25 mM N-Acetyl-L-cysteine (Sigma-Aldrich, cat. A9165), 10 mM nicotinamide (Sigma-Aldrich, cat. N0636), 1X B-27 supplement (Thermo Fisher Scientific, cat. 17504044), 1X N-2 supplement (Thermo Fisher Scientific, cat. 17502048), 10 microM Y-27632 dihydrochloride (Tocris Bioscience, cat. 1254), and 50 ng/mL human EGF recombinant protein (Thermo Fisher Scientific, cat. PHG0311). The 485176-168-R4-J1-PDC line was cultured in Panc media, which includes all 6C/Colon 1B media components plus 100 ng/mL human FGF-10 (Thermo Fisher Scientific, cat. 100-26), 500 nM SB-431542 (Selleckchem, cat. S1067), and gastrin (Tocris, cat. 3006).
[…]

[1] = second compound 0.0316 µM, first compound 0.000999 µM
[2] = second compound 0.0316 µM, first compound 0.00316 µM
[3] = second compound 0.0316 µM, first compound 0.00999 µM
[4] = second compound 0.0316 µM, first compound 0.0316 µM
[5] = second compound 0.0316 µM, first compound 0.0999 µM
[6] = second compound 0.0316 µM, first compound 0.316 µM
[7] = second compound 0.1 µM, first compound 0.000999 µM
[8] = second compound 0.1 µM, first compound 0.00316 µM
[9] = second compound 0.1 µM, first compound 0.00999 µM
[10] = second compound 0.1 µM, first compound 0.0316 µM
[11] = second compound 0.1 µM, first compound 0.0999 µM
[12] = second compound 0.1 µM, first compound 0.316 µM
[13] = second compound 0.316 µM, first compound 0.000999 µM
[14] = second compound 0.316 µM, first compound 0.00316 µM
[15] = second compound 0.316 µM, first compound 0.00999 µM
[16] = second compound 0.316 µM, first compound 0.0316 µM
[17] = second compound 0.316 µM, first compound 0.0999 µM
[18] = second compound 0.316 µM, first compound 0.316 µM
[19] = second compound 1 µM, first compound 0.000999 µM
[20] = second compound 1 µM, first compound 0.00316 µM
[21] = second compound 1 µM, first compound 0.00999 µM
[22] = second compound 1 µM, first compound 0.0316 µM
[23] = second compound 1 µM, first compound 0.0999 µM
[24] = second compound 1 µM, first compound 0.316 µM
[25] = second compound 3.16 µM, first compound 0.000999 µM
[26] = second compound 3.16 µM, first compound 0.00316 µM
[27] = second compound 3.16 µM, first compound 0.00999 µM
[28] = second compound 3.16 µM, first compound 0.0316 µM
[29] = second compound 3.16 µM, first compound 0.0999 µM
[30] = second compound 3.16 µM, first compound 0.316 µM
[31] = second compound 10 µM, first compound 0.000999 µM
[32] = second compound 10 µM, first compound 0.00316 µM
[33] = second compound 10 µM, first compound 0.00999 µM
[34] = second compound 10 µM, first compound 0.0316 µM
[35] = second compound 10 µM, first compound 0.0999 µM
[36] = second compound 10 µM, first compound 0.316 µM
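Further: spheroids exposed to agents for one week before reading.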
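Wherever viability, T/C is given: 100% = DMSO vehicle control viability.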

IC50 (second compound 0.0316 µM): 56.2 nM
IC50 (second compound 0.1 µM): 27.8 nM
IC50 (second compound 0.316 µM): 10.7 nM
IC50 (second compound 1 µM): < 0.999 nM
IC50 (second compound 3.16 µM): < 0.999 nM
IC50 (second compound 10 µM): < 0.999 nM
Compound: CC[C@@]1(O)C(=O)OCc2c1cc1n(c2=O)Cc2cc3c(CN(C)C)c(O)ccc3nc2-1 + Cc1cnc(CNC(=O)c2c(=O)c3ccc(N4CCCN(C)CC4)nc3n3c2sc2ccccc23)cn1
viability, T/C [1]: 82.3%
viability, T/C [2]: 80.4%
viability, T/C [3]: 59.7%
viability, T/C [4]: 71.6%
viability, T/C [5]: 29%
viability, T/C [6]: 12.1%
viability, T/C [7]: 74.9%
viability, T/C [8]: 78%
viability, T/C [9]: 73.3%
viability, T/C [10]: 46.7%
viability, T/C [11]: 22.4%
viability, T/C [12]: 16.2%
viability, T/C [13]: 51.6%
viability, T/C [14]: 47.2%
viability, T/C [15]: 55%
viability, T/C [16]: 29.6%
viability, T/C [17]: 18.7%
viability, T/C [18]: 15.6%
viability, T/C [19]: 23.7%
viability, T/C [20]: 24.9%
viability, T/C [21]: 24.6%
viability, T/C [22]: 19%
viability, T/C [23]: 16.7%
viability, T/C [24]: 11.2%
viability, T/C [25]: 21.1%
viability, T/C [26]: 29.1%
viability, T/C [27]: 18.2%
viability, T/C [28]: 17.8%
viability, T/C [29]: 11.8%
viability, T/C [30]: 10.1%
viability, T/C [31]: 21.3%
viability, T/C [32]: 23.7%
viability, T/C [33]: 22.1%
viability, T/C [34]: 15.7%
viability, T/C [35]: 11.5%
viability, T/C [36]: 6.12%

IC50 (second compound 0.0316 µM): 1.04 nM
IC50 (second compound 0.1 µM): < 0.999 nM
IC50 (second compound 0.316 µM): < 0.999 nM
IC50 (second compound 1 µM): < 0.999 nM
IC50 (second compound 3.16 µM): < 0.999 nM
IC50 (second compound 10 µM): < 0.999 nM
Compound: CCc1c2c(nc3ccc(O)cc13)-c1cc3c(c(=O)n1C2)COC(=O)[C@]3(O)CC + Cc1cnc(CNC(=O)c2c(=O)c3ccc(N4CCCN(C)CC4)nc3n3c2sc2ccccc23)cn1
viability, T/C [1]: 51.5%
viability, T/C [2]: 15.3%
viability, T/C [3]: 11.1%
viability, T/C [4]: 6.45%
viability, T/C [5]: 6.82%
viability, T/C [6]: 2.28%
viability, T/C [7]: 32.7%
viability, T/C [8]: 18.6%
viability, T/C [9]: 12.7%
viability, T/C [10]: 6%
viability, T/C [11]: 4.68%
viability, T/C [12]: 1.38%
viability, T/C [13]: 25.2%
viability, T/C [14]: 15.8%
viability, T/C [15]: 12.8%
viability, T/C [16]: 5.79%
viability, T/C [17]: 4.66%
viability, T/C [18]: 0.47%
viability, T/C [19]: 17.1%
viability, T/C [20]: 13.5%
viability, T/C [21]: 7.77%
viability, T/C [22]: 1.4%
viability, T/C [23]: 0.12%
viability, T/C [24]: 0.1%
viability, T/C [25]: 13.7%
viability, T/C [26]: 9.61%
viability, T/C [27]: 3.83%
viability, T/C [28]: 0.1%
viability, T/C [29]: 0.1%
viability, T/C [30]: 0.14%
viability, T/C [31]: 12%
viability, T/C [32]: 9.68%
viability, T/C [33]: 3.64%
viability, T/C [34]: 0.13%
viability, T/C [35]: 0.17%
viability, T/C [36]: 0.21%
